Measured values from patent publication US20240327430A1 (Breakpoint Therapeutics GmbH, priority 2023, published 2024).
pIC50: −log10 of the molar value.

Target: truncated Polθ protein (Polθ-Hel containing the helicase domain (67-894)) (Homo sapiens (Human), UniProt O75417)
Assay: Polθ ATPase assay (Biological Assay 1, ADP-Glo luminescence)
Assay type: biochemical
Conditions: Polθ-Hel 0.5 nM, DNA substrate 500 nM, ATP 60 μM, 23° C.; read-out: Pole ATPase assay IC50
Description: The Polθ ATPase assay was used to evaluate inhibitors of Polθ ATPase activity, in vitro. Experiments were performed using a truncated Polθ protein (Polθ-Hel containing the helicase domain (67-894), ATP and a DNA single strand Oligo (5′-CTGTCCTGCATGATG-3′) in the Polθ assay buffer (20 mM Tis-HCl (pH 8.8), MgCl2 5 mM, tween20 0.01%, NP40 0.01%, BSA 0.01%, DTT 1 mM). 2 μL of assay buffer containing Pole-Hel protein (0.5 nM) and DNA substrate (500 nM) was transferred into assay ready plates, containing 0.04 μL of compounds diluted in DMSO. After a 30 minutes incubation at 23° C. in the dark, the reaction was triggered by adding 2 μL of ATP (60 μM), in assay buffer. After 60 minutes at 23° C., 4 μl of ADP-Glo™ Reagent (Glo 1) was added followed by 40 minutes of incubation, then 8 μl of ADP-Glom kinase Detection Reagent (Glo 2) followed by 60 minutes of incubation at 23° C. Luminescence was then measured using Tecan F200 infinite plate reader. Raw data were analysed using GeneData to generate IC50 values.
The Polθ ATPase assay described in Biological Assay 1 above was used to evaluate inhibitors of Polθ ATPase activity for the compounds described in the Experimental Part B above, in vitro.

Chain of truncated Polθ protein (Polθ-Hel containing the helicase domain (67-894)) (O75417 67-894): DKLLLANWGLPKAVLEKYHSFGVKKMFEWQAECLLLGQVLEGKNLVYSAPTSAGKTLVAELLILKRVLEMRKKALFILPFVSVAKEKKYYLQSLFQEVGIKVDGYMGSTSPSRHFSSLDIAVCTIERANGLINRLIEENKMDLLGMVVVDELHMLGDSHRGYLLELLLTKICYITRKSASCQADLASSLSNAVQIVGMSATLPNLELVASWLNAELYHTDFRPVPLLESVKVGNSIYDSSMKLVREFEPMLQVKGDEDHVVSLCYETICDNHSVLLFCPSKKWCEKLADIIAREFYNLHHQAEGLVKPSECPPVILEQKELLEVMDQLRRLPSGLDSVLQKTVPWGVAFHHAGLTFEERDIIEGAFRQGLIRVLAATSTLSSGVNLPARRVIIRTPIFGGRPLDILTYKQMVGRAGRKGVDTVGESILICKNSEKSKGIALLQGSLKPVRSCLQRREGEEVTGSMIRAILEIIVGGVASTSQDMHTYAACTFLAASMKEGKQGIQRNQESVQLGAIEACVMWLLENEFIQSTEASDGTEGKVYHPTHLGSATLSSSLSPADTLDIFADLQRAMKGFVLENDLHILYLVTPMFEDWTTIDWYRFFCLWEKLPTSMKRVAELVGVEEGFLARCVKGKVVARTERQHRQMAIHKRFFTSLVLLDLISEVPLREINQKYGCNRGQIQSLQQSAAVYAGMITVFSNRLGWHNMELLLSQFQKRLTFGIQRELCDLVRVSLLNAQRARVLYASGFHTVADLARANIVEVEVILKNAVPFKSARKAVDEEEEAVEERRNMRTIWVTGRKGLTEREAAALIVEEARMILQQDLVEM

Compound | pIC50
COc1cnc(Cl)cc1-c1cc(C)ncc1C(=O)Nc1nc2cnc(N[C@@H]3CC[C@H](O)C3)nc2s1 (racemic) [Example 49, rac-2′-chloro-N-(5-{[(1R,3S)-3-hydroxycyclopentyl]amino}-[1,3]thiazolo[5,4-d]pyrimidin-2-yl)-5′-methoxy-6-methyl-[4,4′-bipyridine]-3-carboxamide] | > 7.00
COc1cnc(Cl)cc1-c1cc(C)ncc1C(=O)Nc1nc2ccc(Cl)cc2s1 [Example 1, N-(6-chloro-1,3-benzothiazol-2-yl)-4-(2-chloro-5-methoxy-4-pyridyl)-6-methyl-pyridine-3-carboxamide] | > 7.00
COc1cnc(Cl)cc1-c1cc(C)ncc1C(=O)Nc1nc2ccc(S(C)(=O)=O)cc2s1 [Example 2, 2′-chloro-N-(6-methanesulfonyl-1,3-benzothiazol-2-yl)-5′-methoxy-6-methyl-[4,4′-bipyridine]-3-carboxamide] | > 7.00
COc1cnc(Cl)cc1-c1cc(C)ncc1C(=O)Nc1nc2ccc(C#N)cc2s1 [Example 3, 2′-chloro-N-(6-cyano-1,3-benzothiazol-2-yl)-5′-methoxy-6-methyl-[4,4′-bipyridine]-3-carboxamide] | > 7.00
COc1cnc(Cl)cc1-c1cc(C)ncc1C(=O)Nc1nc2ccc(Br)cc2s1 [Example 5, N-(6-bromo-1,3-benzothiazol-2-yl)-2′-chloro-5′-methoxy-6-methyl-[4,4′-bipyridine]-3-carboxamide] | > 7.00
COc1cnc(Cl)cc1-c1cc(C)ncc1C(=O)Nc1nc2cnc(Cl)nc2s1 [Example 6, 2′-chloro-N-{5-chloro-[1,3]thiazolo[5,4-d]pyrimidin-2-yl}-5′-methoxy-6-methyl-[4,4′-bipyridine]-3-carboxamide] | > 7.00
COc1cnc(Cl)cc1-c1cc(C)ncc1C(=O)Nc1nc2ccc(Cl)nc2s1 [Example 7, 2′-chloro-N-{5-chloro-[1,3]thiazolo[5,4-b]pyridin-2-yl}-5′-methoxy-6-methyl-[4,4′-bipyridine]-3-carboxamide] | > 7.00
COc1ccccc1-c1cnccc1C(=O)Nc1nc2cncnc2s1 [Example 8, 3-(2-methoxyphenyl)-N-{[1,3]thiazolo[5,4-d]pyrimidin-2-yl}pyridine-4-carboxamide] | 6.00 to 7.00
COc1ccccc1-c1cnccc1C(=O)Nc1nc2ccc(Br)cc2s1 [Example 9, N-(6-bromo-1,3-benzothiazol-2-yl)-3-(2-methoxyphenyl)pyridine-4-carboxamide] | 6.00 to 7.00
COc1ccccc1-c1cnccc1C(=O)Nc1nc2cnccc2s1 [Example 10, 3-(2-methoxyphenyl)-N-{[1,3]thiazolo[4,5-c]pyridin-2-yl}pyridine-4-carboxamide] | < 6.00
COc1ccccc1-c1cnccc1C(=O)Nc1nc2ncccc2s1 [Example 11, 3-(2-methoxyphenyl)-N-{[1,3]thiazolo[4,5-b]pyridin-2-yl}pyridine-4-carboxamide] | < 6.00
COc1ccccc1-c1cnccc1C(=O)Nc1nc2cc(C(F)(F)F)ccc2s1 [Example 12, 3-(2-methoxyphenyl)-N-[5-(trifluoromethyl)-1,3-benzothiazol-2-yl]pyridine-4-carboxamide] | < 6.00
COc1ccccc1-c1cnccc1C(=O)Nc1nc2cc(Cl)ccc2s1 [Example 13, N-(5-chloro-1,3-benzothiazol-2-yl)-3-(2-methoxyphenyl)pyridine-4-carboxamide] | < 6.00
COc1ccccc1-c1cnccc1C(=O)Nc1nc2cccnc2s1 [Example 14, 3-(2-methoxyphenyl)-N-{[1,3]thiazolo[5,4-b]pyridin-2-yl}pyridine-4-carboxamide] | < 6.00
COc1cnc(Cl)cc1-c1cc(C)ncc1C(=O)Nc1nc2ccc(N3CCOCC3)cc2s1 [Example 17, 2′-chloro-5′-methoxy-6-methyl-N-[6-(morpholin-4-yl)-1,3-benzothiazol-2-yl]-[4,4′-bipyridine]-3-carboxamide] | > 7.00
